Target: Mucolipin-3 (Homo sapiens) (UniProt Q8TDD5)
Assay: TRPML3 and TRPML2 channel agonists, cell-based, patch clamp, Fura-2 profiling panel (AID 2116)
Details: HEK293 cells expressing TRPML3-YFP, TRPML3 Dose Response

Sequence of Mucolipin-3 (Homo sapiens) (Q8TDD5 whole entry, looked up): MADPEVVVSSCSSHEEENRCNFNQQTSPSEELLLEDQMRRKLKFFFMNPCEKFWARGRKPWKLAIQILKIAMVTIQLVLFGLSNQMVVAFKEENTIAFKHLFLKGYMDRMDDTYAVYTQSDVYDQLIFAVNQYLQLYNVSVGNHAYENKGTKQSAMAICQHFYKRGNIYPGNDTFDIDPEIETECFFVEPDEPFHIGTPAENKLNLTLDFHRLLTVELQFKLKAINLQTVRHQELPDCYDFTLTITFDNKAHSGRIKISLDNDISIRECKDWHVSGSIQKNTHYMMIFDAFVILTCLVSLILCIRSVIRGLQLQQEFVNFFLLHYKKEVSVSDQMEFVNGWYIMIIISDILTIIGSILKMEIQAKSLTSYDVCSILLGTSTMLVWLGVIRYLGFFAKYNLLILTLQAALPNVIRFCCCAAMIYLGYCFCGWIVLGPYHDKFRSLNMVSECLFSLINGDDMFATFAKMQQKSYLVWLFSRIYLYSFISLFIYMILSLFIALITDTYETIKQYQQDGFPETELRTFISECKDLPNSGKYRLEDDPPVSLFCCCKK

| SMILES | EC50 [nM] |
| --- | --- |
| O=S(=O)(NC1CCCCC1N1CCOCC1)c1ccc(Cl)cc1 (configuration not stated) | 450 |
| O=S(=O)(Nc1ccccc1N1CCOCC1)c1ccc(Cl)s1 | 1090 |

Source: PubChem BioAssay AID2116 (The Scripps Research Institute Molecular Screening Center, 2009)
